Assay results as given in patent US20250042848A1, “DEUTERATED FUNCTIONALIZED DERIVATIVES OF alpha-ALANINE, IN [sequence] FOR THE TREATMENT OF NEUROLOGICAL DISEASES” (UNIWERSYTET JAGIELLONSKI, priority 2021, published 2025).

Legend:
[1] = system: human liver microsomes (HLMs); assay: In vitro metabolic stability, human liver microsomes; format: in vitro ADME; settings: 120-minute incubation with HLMs
Method: (§1) Metabolic stability assessment was performed using mouse (MLMs) and human (HLMs) liver microsomes purchased from Sigma-Aldrich (St. Louis, MO, USA). The detailed methodology is described in the literature (Kamiński et al. J. Med. Chem. 2015, 58, 5274-5286). The reaction mixture was prepared by mixing […] of the tested compound with mouse or human microsomes (1 mg/mL) in 10 mM TRIS-HCl buffer. The reaction mixture was pre-incubated for 5 min at 37° C. After the initial incubation, 50 μL of the NADPH Regeneration System (Promega, Madison, WI, USA) was added to initiate the reaction. The reaction mixture was then incubated for 120 min at 37° C. 200 μL of cold extra pure methanol was added to complete the reaction. The mixture was then centrifuged at 14,000 g for 15 min and the supernatants were analyzed using a Waters ACQUITY™ TQD LC/MS system with a TQ detector (Waters, Milford, USA). Each experiment was performed in triplicate.

[2] = system: mouse liver microsomes (MLMs); assay: In vitro metabolic stability, mouse liver microsomes; format: in vitro ADME; settings: 120-minute incubation with MLMs, NADPH
Method: as §1

[3] = system: psychomotor seizures induced by a 32 mA, 6 Hz stimulus in mice; assay: Psychomotor seizure test 6 Hz (32 mA); format: in vivo
Method: (§2) Initial screening was performed on groups of 4 mice. The mean effective dose (ED50) in a given test and the neurotoxic dose in the rotarod test (TD50) were estimated on the basis of the results obtained on 3-4 groups of animals consisting of 6 animals.
(§3) In the psychomotor seizure test (6 Hz test), seizures were induced by a 32 mA and/or 44 mA electrical stimulus of a frequency of 6 pulses per second. An electrical pulse was generated using an electric shock generator (ECT Unit 57800; Ugo Basile, Gemonio, Italy) and delivered to the animal using corneal electrodes. Before starting the test, the eye surface was gently moistened with a solution of local anesthetic (1% lidocaine solution). The study was conducted 30 minutes/2 hours after intraperitoneal administration of the compounds at various doses. An electrical stimulus was delivered continuously for a period of 3 seconds, followed by observation of the animal for a period of 10 seconds. During the experiment, the number of animals with an episode of psychomotor convulsions was counted: motor inhibition, staggering, maintaining a sitting posture, forelimb clonus, twitching of the vibrissae and Straub-tail were observed (Leclercq, K.; Kaminski, R.M. Epilepsia 2015, 56, 310-318).
(§4) The ED50 (effective dose) and TD50 (toxic dose) values along with the corresponding 95% confidence limits were calculated based on the Litchfield and Wilcoxon method (Litchfield, J.T.; Wilcoxon, F. J. Pharmacol. Exp. Ther. 1949, 96, 99-113). To perform a statistical evaluation of the results in the scPTZ test, one-way ANOVA variance analysis followed by Dunnett's post hoc test were used. The values were considered statistically significant if p<0.05.

[4] = system: psychomotor seizures induced by a 44 mA, 6 Hz stimulus in mice; assay: Psychomotor seizure test 6 Hz (44 mA); format: in vivo; settings: in mg/kg
Method: as §2, §3, §4

[5] = system: oxaliplatin-induced mechanical allodynia in mice; assay: Oxaliplatin (OXPT)-induced peripheral neuropathy model, von Frey test; format: in vivo
Method: The reaction was observed before administration and 3 hours (early phase) and 7 days (late phase) after administration of OXPT.
(§5) All tests/models were performed based on procedures described in the specialist literature: formalin test (Beirith et al. Eur. J. Pharmacol. 1998, 345, 233-245), capsaicin-induced pain model (Mogilski et al. Pharmacol. Biochem. Behav. 2015, 133, 99-110), oxaliplatin-induced neuropathic pain model-von Frey's test (Sałat et al. Pharmacol. Biochem. Behav. 2014, 122, 173-181), streptozotocin-induced diabetic neuropathic pain model-von Frey's test (Sałat et al. Neuropharmacology 2017, 125, 181-188; Tanabe et al. J. Pharmacol. Sci. 2008, 107, 213-220). The test group consisted of 8-10 animals.

[6] = system: formalin-induced pain in mice; assay: Formalin test (tonic pain); format: in vivo; settings: for nociceptive response, first phase of the formalin test, % of the baseline (control): phase I (0-5 min); for nociceptive response, second phase of the formalin test, % of baseline (control): phase II (15-30 min); for ED50 (dose reducing the nociceptive response by 50%), formalin test: i.p.
Method: Pain was induced with a chemical agent by intraplantar injection of 2.5% formalin solution in mice in a constant volume of 20 μL. The animals were placed in separate, transparent observation chambers for a period of 30 minutes. The measured value was the total licking and biting time of the formalin-treated paw. The nociceptive response was counted in two time intervals: 0-5 minutes from formalin injection (phase I of the test-acute pain) and 15-30 minutes from its administration (phase II of the test-inflammatory pain). The observed inhibition of the nociceptive response-shortening the time of licking and biting the paw, was interpreted as an analgesic effect of the tested compound.
as §5

[7] = system: capsaicin-induced pain in mice; assay: Capsaicin-induced pain model; format: in vivo
Method: This test evaluated the licking and/or biting time of the hind paw after intraplantar injection of 1.6 μg of capsaicin in a constant volume of 20 μL. Observation was carried out in the period of 5 minutes after capsaicin administration. Inhibition of the nociceptive response —shortening the time of licking and biting the paw, was a measure of the antinociceptive activity of the tested compound.
as §5

[8] = system: spontaneous locomotor activity of mice; settings: mouse, in vivo
Method: For this purpose, the number of light beam crossings in the cages was counted in each group of animals during a 30-minute observation.
The experiments were carried out on male albino mice (CD-1) weighing 25-30 g, provided by an accredited animal facility. All procedures were performed in accordance with the applicable Polish and European guidelines on the ethics of research on animals, after obtaining the appropriate approval. The substance was administered intraperitoneally after suspension in a 1% Tween 80 solution, as single injections of 0.1 mL/10 g b.w., 30 minutes before a given test.
The assessment of the influence of the tested compound on the spontaneous locomotor activity of animals (assessment of the sedative or activating effect) was carried out in accordance with the methodology described in the scientific literature (Mogilski et al. Inflamm. Res. 2017, 66, 79-95), using a cage with dimensions 40×40×31 cm (Activity Cage; Ugo Basile, Gemonio VA, Italy). The compound was administered 30 minutes before the experiment. The number of light beam crossings was counted in each group during the next 30 min at 10-minute intervals. The study group consisted of 10 animals.

[9] = 0.5 h after i.p. administration
[10] = 2.0 h after i.p. administration
[11] = 30 mg/kg, seven days after OXPT (late phase)
[12] = 30 mg/kg, three hours after OXPT (early phase)
[13] = 60 mg/kg, seven days after OXPT (late phase)
[14] = 60 mg/kg, three hours after OXPT (early phase)
[15] = 90 mg/kg, seven days after OXPT (late phase)
[16] = 90 mg/kg, three hours after OXPT (early phase)

[2H]C1([2H])C(=O)N([C@H](C)C(=O)NCc2ccccc2)C(=O)C1([2H])[2H] [d4-(R)-1, (R)-N-benzyl-2-(2,5-dioxopyrrolidin-1-yl-3,3,4,4-d4) propanamide]
metabolic stability [1]: high metabolic stability | metabolic stability (metabolites in UPLC chromatograms) [2]: no metabolites appeared | ED50 6 Hz (32 mA) [3, 9]: 18.6 mg/kg | ED50 6 Hz (32 mA) [3, 10]: 46.4 mg/kg | ED50 6 Hz (44 mA) [4, 9]: 79.2 | ED50 6 Hz (44 mA) [4, 10]: 125.3 | pain threshold (von Frey) [5, 11]: 6.38 ± 0.50 g | pain threshold, % of baseline [5, 11]: 123.9% | pain threshold (von Frey) [5, 12]: 5.73 ± 0.40 g | pain threshold, % of baseline [5, 12]: 111.3% | pain threshold (von Frey) [5, 13]: 7.34 ± 0.42 g | pain threshold, % of baseline [5, 13]: 119.2% | pain threshold (von Frey) [5, 14]: 5.33 ± 0.427 g | pain threshold, % of baseline [5, 14]: 86.5% | pain threshold (von Frey) [5, 15]: 7.04 ± 0.31 g | pain threshold, % of baseline [5, 15]: 110.5% | pain threshold (von Frey) [5, 16]: 7.23 ± 0.42 g | pain threshold, % of baseline [5, 16]: 113.5% | nociceptive response, first phase of the formalin test, % of the baseline (control) ([6]; i.p. 30 mg/kg): 46.80% | nociceptive response, second phase of the formalin test, % of baseline (control) ([6]; i.p. 30 mg/kg): 46.04% | nociceptive response, first phase of the formalin test, % of the baseline (control) ([6]; i.p. 60 mg/kg): 49.85% | nociceptive response, second phase of the formalin test, % of baseline (control) ([6]; i.p. 60 mg/kg): 56.06% | nociceptive response, first phase of the formalin test, % of the baseline (control) ([6]; i.p. 90 mg/kg): 64.40% | nociceptive response, second phase of the formalin test, % of baseline (control) ([6]; i.p. 90 mg/kg): 43.36% | nociceptive response, first phase of the formalin test, % of the baseline (control) ([6]; i.p. 120 mg/kg): 39.68% | nociceptive response, second phase of the formalin test, % of baseline (control) ([6]; i.p. 120 mg/kg): 30.24% | ED50 (dose reducing the nociceptive response by 50%), formalin test ([6]; phase I): 97.9 mg/kg | ED50 (dose reducing the nociceptive response by 50%), formalin test ([6]; phase II): 71.5 mg/kg | ED50, capsaicin test ([7]; i.p.): 17.5 mg/kg | nociceptive response in the capsaicin test, % of the initial value (control) ([7]; i.p. 30 mg/kg): 31.77% | nociceptive response in the capsaicin test, % of the initial value (control) ([7]; i.p. 60 mg/kg): 38.72% | nociceptive response in the capsaicin test, % of the initial value (control) ([7]; i.p. 90 mg/kg): 10.90% | locomotor activity (light beam crossings in 30 min), % of the initial value (vehicle) [8]: 46.90%
